A short description of series [1]: Permeability of the compound across basolateral to apical membrane in human Caco-2 cells incubated for 2 hrs by LC-MS/MS analysis. Conditions: caco-2, 2 h. The class given is ADME, cell-based.
A short description of series [2]: Metabolic stability in mouse liver microsomes assessed as parent compound remaining at 0.5 uM incubated for 10 mins in presence of NADPH by LC-MS/MS analysis. It counts as ADME, Microsome. Conditions: read-out: Stability.
Series [3] is described as follows: Permeability of the compound at pH 5.5 incubated for 4 hrs by PAMPA-based UV spectrophotometry. Conditions: read-out: permeability. The class given is ADME.
Series [4] is described as follows: Permeability of the compound at pH 7.4 incubated for 4 hrs by PAMPA-based UV spectrophotometry. Conditions: PAMPA, pH 7.4, read-out: permeability. It counts as ADME. (The PAMPA barrier holds no transporters, so it reflects passive diffusion.)
The target in series [5] is BMP-2-inducible protein kinase (Homo sapiens, UniProt Q9NSY1). The series can be described thus: Inhibition of wild-type human partial length BIKE (S34 to N329 residues) expressed in bacterial expression system assessed as residual binding level at 1 uM by Kinomescan method relative to control.
Series [6] addresses Phosphatidylinositol 5-phosphate 4-kinase type-2 beta (Homo sapiens) (UniProt P78356). Put plainly: Inhibition of wild-type human full length PIP5K2B (M1 to T416 residues) expressed in bacterial expression system assessed as residual binding level at 1 uM by Kinomescan method relative to control.
The target of series [7] is Serine/threonine-protein kinase RIO1 (Homo sapiens) (UniProt Q9BRS2). The series can be described thus: Inhibition of wild-type human full length RIOK1 (M1 to K568 residues) expressed in bacterial expression system assessed as residual binding level at 1 uM by Kinomescan method relative to control.
Series [8] can be described thus: Inhibition of PKA (unknown origin). The arrangement: species or system Homo sapiens.
For series [9], the target named is Kappa-type opioid receptor (Homo sapiens, UniProt P41145). Put plainly: Inhibition of kappa opioid receptor (unknown origin).
Series [10] concerns the target AP2-associated protein kinase 1 (Mus musculus) (UniProt Q3UHJ0). The series can be described thus: In vivo inhibition of AAK1 in C57BL6 mouse assessed as suppression of mu2 phosphorylation in brain lysate at 60 mg/kg, sc measured after 1 hr by Western blot analysis relative to control. It counts as functional, organism-based.
Series [11] shares this target. The series can be described thus: In vivo inhibition of AAK1 in C57BL6 mouse assessed as suppression of mu2 phosphorylation in brain lysate at 30 mg/kg, sc measured after 30 mins by Western blot analysis relative to control. It counts as functional, organism-based.
Series [12] is described as follows: Drug concentration in plasma of C57BL6 mouse at 0.3 mg/kg, sc. Conditions: in vivo. It counts as ADME, organism-based.
The test system of a further series is Mus musculus. Put plainly: Antinociceptive activity against formalin-induced nociceptive behavior in C57BL6 mouse assessed as reduction in time spent phase 1 hind paw licking/biting at 30 mg/kg, sc administered 60 mins prior to formalin challenge by formalin test. It counts as functional. Conditions: 1 h.
The next series has as its system Rattus norvegicus. The series can be described thus: Reversal of chronic constriction injury-induced mechanical allodynia in Sprague-Dawley rat model of neuropathic pain at 60 mg/kg, sc measured up to 180 mins relative to control. The class given is functional. Conditions: time min <=180.
A short description of series [13]: Drug concentration in plasma of Sprague-Dawley rat model of chronic constriction injury-induced neuropathic pain at 1 mg/kg, sc. It counts as ADME, organism-based. Conditions: in vivo.
Series [14] can be described thus: Drug concentration in plasma of Sprague-Dawley rat model of chronic constriction injury-induced neuropathic pain at 10 mg/kg, sc. It counts as ADME, organism-based. Conditions: in vivo.
Series [15] in a line: Drug concentration in plasma of Sprague-Dawley rat model of chronic constriction injury-induced neuropathic pain at 30 mg/kg, sc. The class given is ADME, organism-based. Conditions: in vivo.
Series [16] is described as follows: Drug concentration in brain of Sprague-Dawley rat model of chronic constriction injury-induced neuropathic pain at 3 mg/kg, sc. The class given is ADME, organism-based. Conditions: in vivo, read-out: Ct.
The nature of series [17]: Drug concentration in brain of Sprague-Dawley rat model of chronic constriction injury-induced neuropathic pain at 10 mg/kg, sc. The class given is ADME, organism-based. Conditions: in vivo, read-out: Ct.
The nature of series [18]: Unbound drug concentration in plasma of Sprague-Dawley rat model of chronic constriction injury-induced neuropathic pain at 3 mg/kg, sc. It counts as ADME, organism-based. Conditions: in vivo.
A short description of series [19]: Unbound drug concentration in brain of Sprague-Dawley rat model of chronic constriction injury-induced neuropathic pain at 10 mg/kg, sc. It counts as ADME, organism-based. Conditions: in vivo.
The nature of series [20]: Unbound drug concentration in brain of Sprague-Dawley rat model of chronic constriction injury-induced neuropathic pain at 30 mg/kg, sc. Conditions: in vivo. It counts as ADME, organism-based.

Sequence of AP2-associated protein kinase 1 (Mus musculus) (Q3UHJ0 whole entry, looked up): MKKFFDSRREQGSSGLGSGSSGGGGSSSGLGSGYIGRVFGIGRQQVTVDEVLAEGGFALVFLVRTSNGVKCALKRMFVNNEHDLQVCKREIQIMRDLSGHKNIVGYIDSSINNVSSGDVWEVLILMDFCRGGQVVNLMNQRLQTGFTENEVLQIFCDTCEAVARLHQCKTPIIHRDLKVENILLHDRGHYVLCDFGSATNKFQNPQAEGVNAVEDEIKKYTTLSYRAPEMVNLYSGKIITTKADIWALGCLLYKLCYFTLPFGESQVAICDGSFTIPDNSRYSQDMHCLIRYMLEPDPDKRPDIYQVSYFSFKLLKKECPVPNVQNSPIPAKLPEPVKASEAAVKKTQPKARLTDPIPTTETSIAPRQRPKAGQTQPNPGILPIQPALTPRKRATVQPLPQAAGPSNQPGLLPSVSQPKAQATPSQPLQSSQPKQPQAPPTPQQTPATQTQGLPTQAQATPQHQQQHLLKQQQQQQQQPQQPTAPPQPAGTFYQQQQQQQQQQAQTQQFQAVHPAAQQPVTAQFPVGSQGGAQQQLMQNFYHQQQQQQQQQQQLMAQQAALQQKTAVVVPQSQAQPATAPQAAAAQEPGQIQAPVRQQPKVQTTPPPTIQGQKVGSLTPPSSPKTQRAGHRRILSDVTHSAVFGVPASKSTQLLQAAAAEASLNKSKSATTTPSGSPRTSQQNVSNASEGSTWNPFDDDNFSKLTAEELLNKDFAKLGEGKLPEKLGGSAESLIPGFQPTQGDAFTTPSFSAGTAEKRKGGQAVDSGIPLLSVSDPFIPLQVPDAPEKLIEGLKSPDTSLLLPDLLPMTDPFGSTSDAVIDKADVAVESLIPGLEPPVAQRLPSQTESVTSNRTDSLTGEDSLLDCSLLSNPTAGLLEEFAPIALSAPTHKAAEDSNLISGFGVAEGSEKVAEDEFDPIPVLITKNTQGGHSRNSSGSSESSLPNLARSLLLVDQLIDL
Sequence of BMP-2-inducible protein kinase (Q9NSY1 whole entry, looked up, the tested form may be a part): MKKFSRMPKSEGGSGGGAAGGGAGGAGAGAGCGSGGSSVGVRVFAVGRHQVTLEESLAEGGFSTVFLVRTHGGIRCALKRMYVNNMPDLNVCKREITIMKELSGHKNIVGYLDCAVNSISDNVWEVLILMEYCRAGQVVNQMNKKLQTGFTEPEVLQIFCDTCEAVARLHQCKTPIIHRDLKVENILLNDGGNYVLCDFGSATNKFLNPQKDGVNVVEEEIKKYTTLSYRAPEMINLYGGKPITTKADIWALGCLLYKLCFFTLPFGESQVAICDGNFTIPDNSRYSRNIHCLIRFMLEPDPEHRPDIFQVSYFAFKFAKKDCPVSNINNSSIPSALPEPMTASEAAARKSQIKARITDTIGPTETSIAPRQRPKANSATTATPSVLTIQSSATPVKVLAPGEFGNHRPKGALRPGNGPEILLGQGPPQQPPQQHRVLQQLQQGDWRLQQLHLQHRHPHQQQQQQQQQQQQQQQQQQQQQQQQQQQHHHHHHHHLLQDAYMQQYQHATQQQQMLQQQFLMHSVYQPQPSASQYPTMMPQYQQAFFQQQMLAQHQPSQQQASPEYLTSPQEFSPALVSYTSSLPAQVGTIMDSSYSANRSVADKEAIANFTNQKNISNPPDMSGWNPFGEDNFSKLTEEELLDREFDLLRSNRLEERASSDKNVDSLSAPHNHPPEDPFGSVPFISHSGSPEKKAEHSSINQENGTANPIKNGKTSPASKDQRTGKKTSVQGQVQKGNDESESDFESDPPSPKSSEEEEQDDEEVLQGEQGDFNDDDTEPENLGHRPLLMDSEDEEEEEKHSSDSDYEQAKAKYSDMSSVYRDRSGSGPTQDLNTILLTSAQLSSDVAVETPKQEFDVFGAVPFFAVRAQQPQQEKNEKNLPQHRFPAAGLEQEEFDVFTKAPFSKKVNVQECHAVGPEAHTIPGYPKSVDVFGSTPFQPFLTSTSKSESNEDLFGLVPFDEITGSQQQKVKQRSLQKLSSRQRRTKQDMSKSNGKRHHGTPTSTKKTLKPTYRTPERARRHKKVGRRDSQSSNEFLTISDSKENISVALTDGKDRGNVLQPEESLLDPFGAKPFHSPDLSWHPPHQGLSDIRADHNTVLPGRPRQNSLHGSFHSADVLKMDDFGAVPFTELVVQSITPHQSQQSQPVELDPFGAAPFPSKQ
Sequence of Phosphatidylinositol 5-phosphate 4-kinase type-2 beta (Homo sapiens) (P78356 whole entry, the tested form may be a part): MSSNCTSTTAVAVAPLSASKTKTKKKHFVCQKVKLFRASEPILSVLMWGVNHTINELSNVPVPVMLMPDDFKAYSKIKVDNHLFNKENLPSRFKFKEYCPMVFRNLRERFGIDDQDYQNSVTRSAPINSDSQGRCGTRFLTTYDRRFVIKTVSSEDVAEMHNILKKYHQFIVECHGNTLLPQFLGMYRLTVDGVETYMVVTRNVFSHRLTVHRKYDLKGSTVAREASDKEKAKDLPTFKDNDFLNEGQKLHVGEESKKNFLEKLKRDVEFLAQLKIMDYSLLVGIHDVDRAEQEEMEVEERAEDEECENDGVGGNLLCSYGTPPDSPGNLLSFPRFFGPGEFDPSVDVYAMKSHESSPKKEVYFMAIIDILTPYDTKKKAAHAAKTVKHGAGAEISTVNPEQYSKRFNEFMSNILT
Sequence of Kappa-type opioid receptor (P41145 whole entry): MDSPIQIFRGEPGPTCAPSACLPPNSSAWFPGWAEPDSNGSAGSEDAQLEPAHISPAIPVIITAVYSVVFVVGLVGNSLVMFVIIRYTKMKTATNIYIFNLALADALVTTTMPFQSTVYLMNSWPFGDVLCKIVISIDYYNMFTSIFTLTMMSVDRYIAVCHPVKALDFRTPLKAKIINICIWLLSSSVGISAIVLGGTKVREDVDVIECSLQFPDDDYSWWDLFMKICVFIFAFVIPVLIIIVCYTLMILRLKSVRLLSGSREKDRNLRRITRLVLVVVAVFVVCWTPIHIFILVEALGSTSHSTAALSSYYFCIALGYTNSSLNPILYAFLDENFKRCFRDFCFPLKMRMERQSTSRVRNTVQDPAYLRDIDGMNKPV
Sequence of Serine/threonine-protein kinase RIO1 (Homo sapiens) (Q9BRS2 whole entry, the tested form may be a part): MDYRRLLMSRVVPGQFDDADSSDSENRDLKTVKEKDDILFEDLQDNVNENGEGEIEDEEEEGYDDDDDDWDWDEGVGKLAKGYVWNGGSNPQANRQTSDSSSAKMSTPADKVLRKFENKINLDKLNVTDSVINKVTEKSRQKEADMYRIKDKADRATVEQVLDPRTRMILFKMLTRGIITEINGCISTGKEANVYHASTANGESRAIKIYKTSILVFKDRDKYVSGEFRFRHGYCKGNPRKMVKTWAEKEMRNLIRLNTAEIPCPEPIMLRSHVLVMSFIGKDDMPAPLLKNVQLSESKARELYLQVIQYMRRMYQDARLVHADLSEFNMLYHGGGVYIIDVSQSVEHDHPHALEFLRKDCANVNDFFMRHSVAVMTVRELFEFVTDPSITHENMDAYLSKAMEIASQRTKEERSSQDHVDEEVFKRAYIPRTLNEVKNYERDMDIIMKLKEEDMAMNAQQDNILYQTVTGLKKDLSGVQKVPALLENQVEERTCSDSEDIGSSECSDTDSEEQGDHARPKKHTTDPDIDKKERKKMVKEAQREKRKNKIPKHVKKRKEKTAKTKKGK

Consider `CC(C)C[C@@H](N)C(=O)Nc1ccc(-c2cnco2)c(OC(F)F)c1`, for which the permeability in series [1] was 113 10^-6 cm/s. For the same molecule, the remaining at 10 min, 0.5 µM in series [2] came to 46%. In addition, the Papp at 4 h in series [3] was 918 nm/s; in series [4] it was 967 nm/s. Moreover, the Activity in [5] turned out to be 6.2%; in series [6] it was 6.2%; in series [7], 7.6%; with Rattus norvegicus it was 42%. In addition, the IC50 (usually the concentration that gives 50% inhibition) is 0.57 µM in series [8] and over 30 µM in series [9]. For the same molecule, the inhibition (commonly the drop in the measured response relative to a control, in per cent) in series [10] was determined as 90%; in [11], 62%. The concentration in series [12] came to 0.4 µM; in series [13] it was 0.4 µM; in [14] it was 11 µM; in [15], 52 µM; in series [16] it was 0.9 µM; in series [17] it was 7 µM. In the series with Mus musculus, the Time is recorded as 18 s. Moreover, the “Cp(f)” value in series [18] came to 0.02 µM. In addition, the “Drug uptake(free)” value in [19] worked out at 0.2 µM; in [20], 0.92 µM.

Source of the values: ChEMBL document CHEMBL4828715, “Discovery, Structure-Activity Relationships, and In Vivo Evaluation of Novel Aryl Amides as Brain Penetrant Adaptor Protein 2-Associated Kinase 1 (AAK1) Inhibitors for the Treatment of Neuropathic Pain” (J Med Chem, 2021).
